# Measurements as given in patent EP0203736A1, “Antiviral compounds” (THE WELLCOME FOUNDATION LIMITED, priority 1985, dated 1986).
# System: herpes simplex
# Assay: In vivo potency against herpes simplex infection in intra-cerebrally infected mice (survival times, MRST)
# Design: species or system CD 1 mice
# Details: for MRST: mean reciprocal survival time; for MRST / Survival Times / survivors: 50 mg/kg twice daily for 4.5 days; for MRST / Survival Times: recorded over 14 days; for Survival Times / survivors: 10 animals; for Survival Times: figures = number of animals that died (on the day in parentheses); for survivors: 14 days, 1 mouse died within 24 hours of infection
# Protocol: The compounds of Examples 1 and 2 were tested in vivo to determine their potency in vivo against herpes simplex infections. The compounds were tested in comparison with the 6-deoxy analogue of the compound of Example 1, namely 9-(3,4-dihydroxybutyI) guanine (DHBG). The following is description of the testing.
# The compounds were tested in CD 1 mice infected with herpes simplex ICI cell culture stock having a titre of 1 x 10^5 plaque forming units (pfu)/ml and administered to the mice in a dose of 0.025ml by the intra-cerebral route.
# The test compounds were prepared as aqueous suspensions or solutions, each compound being administered at a dose of 50 mg/kg in a volume of 0.1 ml, by either the oral or sub-cutaneous (s.c.) route, to a treatment group of animals. Each group contained 10 animals for each compound and for each route of administration.
# Treatment of the animals commenced 2-3 hours after infection and continued twice daily for 4.5 days.
# A group of 13 animals which were infected but untreated served as controls.
# Survival times for the test animals were recorded over 14 days and expressed as mean reciprocol survival times (MRST).
# The results shown in the following table were obtained in which the figures in the column headed "Survival Times" indicate the number of animals that died on the day indicated in parentheses.
Structure (SMILES),MRST (oral),MRST (s.c.),Survival Times (oral),Survival Times (s.c.),survivors (oral),survivors (s.c.),"antiviral effect in vivo against HSV (summary statement, particularly in comparison with DHBG)"
"Nc1nc2c(ncn2CCC(O)CO)c(=O)[nH]1 (stereo not drawn) [DHBG, 9-(3,4-dihydroxybutyI) guanine, reference compound]",0.18,0.155,"1(4.5), 3(5), 5(6), 1(7)","1(5), 3(6), 5(7), 1(7.5)",–,–,–
"Nc1ncc2ncn(CCC(O)CO)c2n1 (stereo not drawn) [Example 1, 2-Amino-9-(3,4-dihydroxybutyl)-9H-purine]",0.154,0.160,"1(5), 4(6), 3(7), 1(7.5), 1(9)","7(6), 3(7)",–,–,–
Nc1ncc2ncn(COCC(O)CO)c2n1 (stereo not drawn) [Example 2],0.059,0.054,"1(6), 1(7), 1(8), 1(10.5)","3(8), 1(9)",5,5,potent antiviral effect
